# Data as given in publication PMC8213057, “Targeting ALK2: An Open Science Approach to Developing Therapeutics for the Treatment of Diffuse Intrinsic Pontine Glioma” (Journal of Medicinal Chemistry, 2020).
# Tests used:
# MASTL = target: T1, MASTL (Homo sapiens, UniProt Q96GX5); experiment: biochemical; details: read-out: % enzyme activity, 1 μM; Run 1, Run 2
# T1 sequence (Q96GX5 1-879): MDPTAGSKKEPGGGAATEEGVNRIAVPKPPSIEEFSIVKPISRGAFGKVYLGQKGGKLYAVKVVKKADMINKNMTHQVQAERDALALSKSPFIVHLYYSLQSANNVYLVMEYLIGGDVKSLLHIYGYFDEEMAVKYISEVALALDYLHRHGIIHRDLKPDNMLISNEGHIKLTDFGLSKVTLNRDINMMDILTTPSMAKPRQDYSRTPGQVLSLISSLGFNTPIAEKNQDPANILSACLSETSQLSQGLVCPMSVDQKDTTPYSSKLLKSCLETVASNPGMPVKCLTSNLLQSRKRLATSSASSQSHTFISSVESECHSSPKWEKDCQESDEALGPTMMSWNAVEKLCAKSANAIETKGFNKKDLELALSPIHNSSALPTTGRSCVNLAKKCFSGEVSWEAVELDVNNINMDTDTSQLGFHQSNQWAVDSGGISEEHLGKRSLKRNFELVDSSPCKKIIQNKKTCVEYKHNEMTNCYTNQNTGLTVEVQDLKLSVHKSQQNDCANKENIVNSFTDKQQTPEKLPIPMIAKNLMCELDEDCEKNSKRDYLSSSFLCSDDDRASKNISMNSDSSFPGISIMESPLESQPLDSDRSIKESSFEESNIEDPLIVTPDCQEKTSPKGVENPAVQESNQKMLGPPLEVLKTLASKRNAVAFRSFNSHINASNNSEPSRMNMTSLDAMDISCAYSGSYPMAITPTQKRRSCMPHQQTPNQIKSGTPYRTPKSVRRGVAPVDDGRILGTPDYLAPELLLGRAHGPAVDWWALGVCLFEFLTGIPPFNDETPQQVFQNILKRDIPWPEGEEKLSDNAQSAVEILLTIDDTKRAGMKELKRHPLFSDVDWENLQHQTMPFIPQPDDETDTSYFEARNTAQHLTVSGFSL
# MRCKa/CDC42BPA = MRCKa/CDC42BPA (Homo sapiens, UniProt Q5VT25); experiment: biochemical; details: read-out: % enzyme activity, 1 μM; Run 1, Run 2
# Chain of MRCKa/CDC42BPA (Q5VT25 whole entry): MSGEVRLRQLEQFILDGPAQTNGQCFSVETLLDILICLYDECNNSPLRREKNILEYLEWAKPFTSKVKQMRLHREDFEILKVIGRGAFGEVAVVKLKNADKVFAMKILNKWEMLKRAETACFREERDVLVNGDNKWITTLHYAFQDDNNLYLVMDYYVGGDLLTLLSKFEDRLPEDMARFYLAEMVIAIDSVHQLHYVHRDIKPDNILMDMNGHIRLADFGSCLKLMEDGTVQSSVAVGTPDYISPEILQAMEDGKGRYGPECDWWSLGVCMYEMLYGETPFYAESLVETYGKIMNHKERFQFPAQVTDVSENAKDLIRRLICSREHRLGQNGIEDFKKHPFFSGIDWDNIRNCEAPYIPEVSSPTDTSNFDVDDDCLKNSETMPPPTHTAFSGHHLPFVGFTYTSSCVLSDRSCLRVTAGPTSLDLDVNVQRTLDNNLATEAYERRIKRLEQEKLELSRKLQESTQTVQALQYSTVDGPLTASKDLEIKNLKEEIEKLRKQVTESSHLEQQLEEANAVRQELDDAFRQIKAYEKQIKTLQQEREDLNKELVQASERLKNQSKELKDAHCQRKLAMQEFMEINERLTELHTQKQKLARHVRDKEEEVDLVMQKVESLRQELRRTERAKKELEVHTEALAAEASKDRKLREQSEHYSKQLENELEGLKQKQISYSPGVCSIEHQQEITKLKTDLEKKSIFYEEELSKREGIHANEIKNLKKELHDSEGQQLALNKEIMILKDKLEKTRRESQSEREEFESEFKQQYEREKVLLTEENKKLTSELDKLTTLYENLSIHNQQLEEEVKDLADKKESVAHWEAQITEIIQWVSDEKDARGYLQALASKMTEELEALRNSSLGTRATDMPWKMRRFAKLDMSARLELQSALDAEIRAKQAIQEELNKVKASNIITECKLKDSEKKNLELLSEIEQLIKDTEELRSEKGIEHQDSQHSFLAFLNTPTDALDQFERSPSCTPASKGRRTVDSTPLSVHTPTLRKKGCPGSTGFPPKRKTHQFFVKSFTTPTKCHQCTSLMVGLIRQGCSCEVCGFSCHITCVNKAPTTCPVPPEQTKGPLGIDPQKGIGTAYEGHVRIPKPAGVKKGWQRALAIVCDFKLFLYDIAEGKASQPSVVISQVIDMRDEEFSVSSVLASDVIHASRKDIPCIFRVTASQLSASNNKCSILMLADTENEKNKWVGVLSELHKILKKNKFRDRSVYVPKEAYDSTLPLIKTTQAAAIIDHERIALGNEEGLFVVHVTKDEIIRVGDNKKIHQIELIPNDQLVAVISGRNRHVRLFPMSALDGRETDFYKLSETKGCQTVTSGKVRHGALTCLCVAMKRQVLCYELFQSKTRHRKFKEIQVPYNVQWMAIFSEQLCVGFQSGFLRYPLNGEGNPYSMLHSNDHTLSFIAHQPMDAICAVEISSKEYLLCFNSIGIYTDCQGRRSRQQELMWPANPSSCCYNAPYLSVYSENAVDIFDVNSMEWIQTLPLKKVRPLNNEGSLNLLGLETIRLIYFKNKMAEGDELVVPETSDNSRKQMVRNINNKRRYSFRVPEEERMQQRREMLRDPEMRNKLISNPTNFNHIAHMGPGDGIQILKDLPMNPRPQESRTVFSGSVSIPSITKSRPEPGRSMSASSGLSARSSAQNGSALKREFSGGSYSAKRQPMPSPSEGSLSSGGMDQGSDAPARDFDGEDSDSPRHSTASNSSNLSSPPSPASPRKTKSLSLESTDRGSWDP
# NLK = target: T2, NLK (Homo sapiens, UniProt Q9UBE8); experiment: 375-member kinase panel; type: biochemical; details: Run 1, Run 2; for % enzyme activity: 1 μM; for remaining activity at 1 µM: read-out: % enzyme activity, 1 μM
# T2 construct: purchased Reaction Biology Corporation
# T2 sequence (Q9UBE8 1-527): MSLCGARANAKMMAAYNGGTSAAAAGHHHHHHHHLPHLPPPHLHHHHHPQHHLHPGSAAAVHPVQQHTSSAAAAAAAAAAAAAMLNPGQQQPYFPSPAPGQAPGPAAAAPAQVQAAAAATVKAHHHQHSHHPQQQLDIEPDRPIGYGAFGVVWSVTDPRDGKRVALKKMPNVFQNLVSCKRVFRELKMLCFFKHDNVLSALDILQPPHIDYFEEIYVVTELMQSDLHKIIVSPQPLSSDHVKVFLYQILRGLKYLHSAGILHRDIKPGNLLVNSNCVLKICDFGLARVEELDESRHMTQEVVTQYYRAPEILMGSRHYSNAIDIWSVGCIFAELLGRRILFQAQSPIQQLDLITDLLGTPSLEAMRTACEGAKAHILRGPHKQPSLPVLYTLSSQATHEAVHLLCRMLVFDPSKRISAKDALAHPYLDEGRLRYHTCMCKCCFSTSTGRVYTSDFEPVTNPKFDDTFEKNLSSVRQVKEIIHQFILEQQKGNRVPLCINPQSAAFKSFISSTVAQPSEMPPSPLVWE
# PKCnu/PRKD3 = target: T3, PKCnu/PRKD3 (Homo sapiens, UniProt O94806); details: 1 μM; Run 1, Run 2
# T3 sequence (O94806 1-890): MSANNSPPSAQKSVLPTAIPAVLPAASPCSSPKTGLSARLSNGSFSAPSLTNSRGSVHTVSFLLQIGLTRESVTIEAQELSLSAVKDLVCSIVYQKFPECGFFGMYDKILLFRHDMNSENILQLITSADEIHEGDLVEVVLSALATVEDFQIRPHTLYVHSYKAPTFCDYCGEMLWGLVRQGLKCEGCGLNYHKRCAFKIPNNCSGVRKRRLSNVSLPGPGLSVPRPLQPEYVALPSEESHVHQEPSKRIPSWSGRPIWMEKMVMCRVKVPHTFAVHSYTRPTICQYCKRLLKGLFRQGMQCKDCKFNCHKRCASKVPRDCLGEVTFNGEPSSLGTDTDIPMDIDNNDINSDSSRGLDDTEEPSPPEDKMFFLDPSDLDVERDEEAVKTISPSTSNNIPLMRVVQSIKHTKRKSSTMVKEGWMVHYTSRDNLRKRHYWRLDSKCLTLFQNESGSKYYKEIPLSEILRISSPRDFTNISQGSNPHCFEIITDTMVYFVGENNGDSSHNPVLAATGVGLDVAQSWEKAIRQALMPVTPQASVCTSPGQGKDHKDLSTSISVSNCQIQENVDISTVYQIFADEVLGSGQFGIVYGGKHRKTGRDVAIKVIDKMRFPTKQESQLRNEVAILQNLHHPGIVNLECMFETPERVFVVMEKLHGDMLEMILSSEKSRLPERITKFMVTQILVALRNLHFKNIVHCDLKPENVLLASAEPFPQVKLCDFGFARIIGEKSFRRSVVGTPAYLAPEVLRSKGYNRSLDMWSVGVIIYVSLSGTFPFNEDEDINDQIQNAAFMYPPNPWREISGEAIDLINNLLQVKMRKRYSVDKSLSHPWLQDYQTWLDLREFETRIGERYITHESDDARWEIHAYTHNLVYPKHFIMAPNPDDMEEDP
# PBK/TOPK = target: T4, PBK/TOPK (Homo sapiens, UniProt Q96KB5); details: 1 μM; Run 1, Run 2
# T4 sequence (Q96KB5 1-322): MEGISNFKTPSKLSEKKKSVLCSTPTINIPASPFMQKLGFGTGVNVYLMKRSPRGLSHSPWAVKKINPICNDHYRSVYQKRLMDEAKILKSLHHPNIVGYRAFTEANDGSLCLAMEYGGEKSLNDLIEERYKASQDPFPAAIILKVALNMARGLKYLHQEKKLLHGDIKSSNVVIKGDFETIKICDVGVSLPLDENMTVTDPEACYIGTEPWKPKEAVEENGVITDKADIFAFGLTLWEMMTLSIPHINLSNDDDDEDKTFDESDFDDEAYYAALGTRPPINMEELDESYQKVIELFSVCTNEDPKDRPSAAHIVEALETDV
Structure (SMILES),remaining activity at 1 µM (MASTL) [%],remaining activity at 1 µM (MRCKa/CDC42BPA) [%],% enzyme activity (NLK) [%],remaining activity at 1 µM (NLK) [%],% enzyme activity (PKCnu/PRKD3) [%],% enzyme activity (PBK/TOPK) [%]
"COc1cc(-c2cncc(-c3ccc(N4CCN(C)CC4)cc3)c2C)cc(F)c1C(N)=O [Compound 26a, 2-Fluoro-6-methoxy-4-(4-methyl-5-(4-(4-methylpiperazin-1-yl)phenyl)pyridin-3-yl)benzamide]",99.3,103,20.81,22,83.26,89.81
"COc1cc(-c2cncc(-c3ccc(N4C[C@@H](C)N(C)[C@@H](C)C4)cc3)c2C)cc(F)c1C(N)=O [Compound 26c, 2-Fluoro-6-methoxy-4-(4-methyl-5-(4-((3R,5S)-3,4,5-trimethylpiperazin-1-yl)phenyl)pyridin-3-yl)benzamide]",102,105,47.74,50.4,89.59,102.56
